The text below walks through data of PubChem BioAssay (NCI).

Holding throughout (assay): NCI anticancer screen, dose series, 48 h
Experiment [1] has as its system SK-MEL-2 melanoma.
Experiment [2] relates to MALME-3M melanoma.
Experiment [3] relates to NCI-H226 lung.
Experiment [4] deals with COLO 205 colon.
The test system of experiment [5] is HCC-2998 colon.
The subject of experiment [6] is DLD-1 colon.
Experiment [7] has as its system HL-60(TB) leukemia.
Experiment [8] concerns A549 NSCLC.
For experiment [9], the system named is SR leukemia.
The test system of experiment [10] is HCT-116 colon.
The test system of experiment [11] is SNB-75 CNS.
In experiment [12] the test system is M14 melanoma.
Experiment [13] deals with KM12 colon.
Experiment [14] has as its system OVCAR-5 ovarian.
Experiment [15] concerns HOP-92 NSCLC.
Experiment [16] deals with BT-549 breast.
In experiment [17] the test system is MDA-N.
For experiment [18], the system named is MDA-MB-231 breast.
Experiment [19] relates to DU-145 prostate.
Experiment [20] deals with HS 578T breast.

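Protocol summary: plate cells (96-well), add compound at 5 concentrations, incubate 48 h, interpolate endpoints linearly. The concentration for full growth arrest is given as TGI.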 A value given as a limit tells only on which side of the number the result lay.

Turning to `COC(=O)CC(C(C(=O)OCc1ccccc1)C(C)O)N1C(=O)OCC1c1ccccc1` (stereo not given), the TGI in [1], in experiment [2], in [3], in experiment [4], in experiment [5] and in [6] was > 100 µM throughout. In addition, the TGI in experiment [7] is > 100 µM; in [8] it was > 100 µM; in experiment [9], > 100 µM; in [10], > 100 µM; in [11], 89.8 µM; in [12], > 100 µM.
As for `COC1CC(O[C@H]2CC[C@@]3(C)C(=CCC4(O)C3CCC35C(=O)OC6(C)O[C@@]43CCC65)C2)OC(C)C1O` (stereo not given in full), the TGI in experiment [13], in experiment [1], in experiment [2], in experiment [3], in [14] and in [4] was > 100 µM throughout. Also, the TGI in experiment [5], in [6], in [7], in experiment [8], in experiment [9] and in [10] was > 100 µM each time. Besides, the TGI in experiment [11] and in experiment [12] was > 100 µM in each case.
`C=CCC1(CN(C)C)CC/C(=C\c2cc(OC)c(OC)c(OC)c2)C1=O` (stereo not given): the TGI in experiment [13] was 32.8 µM; in experiment [1], > 100 µM; in experiment [2], > 100 µM; in [3], > 100 µM; in experiment [14], > 100 µM; in [4], 31.3 µM. The TGI in experiment [5] is 35.5 µM; in experiment [15] it was > 100 µM; in [6], 38.5 µM; in experiment [7], 20.6 µM; in [8], > 100 µM; in experiment [9], 49.1 µM. The TGI in experiment [10] is 31.3 µM; in [11] it was > 100 µM; in experiment [12], 38.4 µM.
Consider `COc1ccc2c(c1)c1ccc3c(c1n2C)C(=O)C=CC3=O`, for which the TGI in experiment [13] was found to be 35.8 µM; in [1] it was 34.7 µM; in experiment [2], 18.8 µM; in experiment [16] it was 10.3 µM; in experiment [3], 32.8 µM; in [14], 35 µM. Also, the TGI in [17] amounted to 24.1 µM; in experiment [4], 19.8 µM; in experiment [5], 34.6 µM; in [15], 14.5 µM; in experiment [6] it was 20.9 µM; in experiment [7] it was 4.94 µM. In addition, the TGI in experiment [18] stood at 12.1 µM; in experiment [8], 68.7 µM; in experiment [9] it was 5.59 µM; in [10], 14 µM; in experiment [19] it was 15 µM; in [11] it was 68.9 µM. Besides, the TGI in experiment [12] was 24.3 µM; in [20], 28.1 µM.
Regarding `Cc1ccc(NC(=O)C(=O)C2C(=O)NC(=O)NC2=O)c(C)c1`, the TGI was > 100 µM in experiment [13]; > 100 µM in [1]; > 100 µM in experiment [2]; 37.8 µM in experiment [3]; > 100 µM in experiment [14]; 26.8 µM in [4]. The TGI in experiment [5], in experiment [15], in experiment [6], in [7], in experiment [8] and in [9] was > 100 µM throughout. In addition, the TGI in experiment [10], in experiment [11] and in [12] was > 100 µM in each case.
In the case of `CO/S(=N/S(=O)(=O)c1ccccc1)c1ccccc1[N+](=O)[O-]` (stereo not given), the TGI in experiment [13], in experiment [1], in experiment [2], in [3], in experiment [14] and in [4] was > 100 µM each time. For the same compound, the TGI in experiment [5], in [6], in [8], in experiment [9], in experiment [11] and in experiment [12] was > 100 µM throughout.
Consider `CC(C)(Oc1ccc2c(=O)cc(-c3ccc(Cl)cc3)oc2c1)C(=O)Nc1c(Cl)cccc1Cl`, for which the TGI in experiment [13], in experiment [1], in experiment [2], in [14], in experiment [15] and in experiment [6] was > 100 µM throughout. Also, the TGI in experiment [7], in [8], in [9], in [10] and in [12] was > 100 µM throughout.
For `CSc1nc2nccnc2c(=O)[nH]1`, the TGI in experiment [1], in [2], in experiment [3], in experiment [14], in experiment [4] and in experiment [5] was > 100 µM throughout. For the same compound, the TGI in experiment [15], in experiment [6], in [7], in experiment [8], in [9] and in experiment [10] was > 100 µM throughout. The TGI in [11] and in [12] was > 100 µM each time.
Take `[N-]=[N+]=C1C(=O)C2CC3CC1CC2C3` (stereo not given): the TGI in experiment [13], in experiment [1], in [2], in experiment [3], in [14] and in experiment [4] was > 100 µM each time. Further, the TGI in experiment [5], in [15], in experiment [6], in experiment [7], in experiment [8] and in [9] was > 100 µM in each case. In addition, the TGI in experiment [10], in experiment [11] and in experiment [12] was > 100 µM in each case.
In the case of `COc1ccc(C2=NN(C(C)=O)c3nc4ccccc4nc3O2)cc1`, the TGI was > 100 µM in experiment [13]; > 100 µM in [1]; > 100 µM in [2]; > 100 µM in [4]; > 100 µM in experiment [5]; 62.5 µM in [15]. Besides, the TGI in experiment [6] was 88 µM; in [7], > 100 µM; in experiment [8], > 100 µM; in experiment [9], > 100 µM; in experiment [10], > 100 µM; in experiment [11], 21.7 µM.
